The source of these data is EP0908457B1, “3-(1,2-benzisothiazol- and isoxazol-5-Y1)-2,4(1H,3H)-pyrimidinedione or thione and 3-(1,2-benzisothiazol- and isoxazol-5-y1)-4(3H)-pyrimidinone or thione herbicidal agents” (BASF AKTIENGESELLSCHAFT, priority 1997, dated 1999).

One series has as its system Cyperus iria. The series can be described thus: Preemergence weed control under flooded paddy conditions, CYPIR (Rice Flatsedge). On herbicidal effect rating, CYPIR: meaning of each grade not given here. It is filed as in vivo. Particulars: flooded paddy; for CYPIR: herbicidal effect rating 0-9, three to four weeks after treatment.
The test system of series [1] is Cyperus serotinus, Rottb. The series can be described thus: Preemergence weed control under flooded paddy conditions, CYPSE (Flatsedge). On herbicidal effect rating, CYPSE: meaning of each grade not given here. It is filed as in vivo. Particulars: for CYPSE: herbicidal effect rating 0-9, three to four weeks after treatment.
The subject of series [2] is Echinochloa oryzoides (Ard.) Fritsch. The series can be described thus: Preemergence weed control under flooded paddy conditions, ECHORC (Watergrass (Calif.)). On herbicidal effect rating, ECHORC: meaning of each grade not given here. It is filed as in vivo. The note with it: flooded paddy; for ECHORC: herbicidal effect rating 0-9, three to four weeks after treatment.
Series [3] deals with Monochoria vaginalis, Presl. The series can be described thus: Preemergence weed control under flooded paddy conditions, MOOVA (Monochoria). On herbicidal effect rating, MOOVA: meaning of each grade not given here. It is filed as in vivo. The note with it: flooded paddy; for MOOVA: herbicidal effect rating 0-9, three to four weeks after treatment.
For series [4], the system named is Oryza sativa, (L.) Tebonnet. Particulars: in vivo. On herbicidal effect rating ORYSAT: meaning of each grade not given here.
The next series concerns Sagittaria pygmaea, L. The series can be described thus: Preemergence weed control under flooded paddy conditions, SAGPY (Arrowhead (Pygmaea)). On herbicidal effect rating, SAGPY: meaning of each grade not given here. It is filed as in vivo. The note with it: flooded paddy; for SAGPY: herbicidal effect rating 0-9, three to four weeks after treatment.
Where [5] appears, read: Rate 0.0320 kg/ha, preemergence, rated three to four weeks after treatment.
Where [6] appears, read: Rate 0.0620 kg/ha, preemergence, rated three to four weeks after treatment.
The mark [7] stands for this setting: Rate 0.1250 kg/ha, preemergence, rated three to four weeks after treatment.
Setting [8] is: Rate 0.2500 kg/ha, preemergence, rated three to four weeks after treatment.
Setting [9] is: Rate 0.2500 kg/ha, preemergence weeds, rated three to four weeks after treatment.
The mark [10] stands for this setting: 0.0320 kg/ha, preemergence weeds.
[11] abbreviates: 0.0620 kg/ha, preemergence weeds.
Where [12] appears, read: 0.1250 kg/ha, preemergence weeds.
Where [13] appears, read: 0.2500 kg/ha, preemergence weeds.
Setting [14] is: Rate 0.0320 kg/ha, preemergence, rated 3-4 weeks after treatment.
Setting [15] is: Rate 0.0620 kg/ha, preemergence, rated 3-4 weeks after treatment.
Where [16] appears, read: Rate 0.1250 kg/ha, preemergence, rated 3-4 weeks after treatment.
The mark [17] stands for this setting: Rate 0.2500 kg/ha, preemergence, rated 3-4 weeks after treatment.
[18] abbreviates: Rate 0.5000 kg/ha, preemergence, rated 3-4 weeks after treatment.

In the case of `Cn1c(C(F)(F)F)cc(=O)n(-c2ccc3snc(CC=NO)c3c2)c1=O` [Example 266, 1,2-Benzisothiazole-3-acetaldehyde, 5-[3,6-dihydro-3-methyl-2,6-dioxo-4-(trifluoromethyl)-1(2H)-pyrimidinyl]-, 3-oxime, (E)- and (Z)-], the “CYPIR herbicidal effect rating” value with Cyperus iria (setting [5]) was 5.0; in the series with Cyperus iria (setting [6]), 5.0; in the series with Cyperus iria (setting [7]), 5.0; in the series on Cyperus iria (setting [8]), 9.0. Further, the “CYPSE herbicidal effect rating” value in series [1] (setting [5]) was 0.0; in series [1] (setting [6]), 0.0; in series [1] (setting [7]) it was 0.0; in series [1] (setting [8]), 3.0. For the same molecule, the “ECHORC herbicidal effect rating” value in series [2] (setting [5]), in series [2] (setting [6]), in series [2] (setting [7]) and in series [2] (setting [8]) was 0.0 in each case. In addition, the “MOOVA herbicidal effect rating” value in series [3] (setting [5]), in series [3] (setting [6]), in series [3] (setting [7]) and in series [3] (setting [8]) was 9.0 in each case. In series [4], the “ORYSAT herbicidal effect rating” value worked out at 0.0. In addition, the “SAGPY herbicidal effect rating” value with Sagittaria pygmaea, L. (setting [5]) is given as 0.0; in the series with Sagittaria pygmaea, L. (setting [6]) it was 0.0; in the series on Sagittaria pygmaea, L. (setting [7]), 0.0; in the series with Sagittaria pygmaea, L. (setting [8]) it was 0.0.

As to `Cn1c(C(F)(F)F)cc(=O)n(-c2ccc3snc(CNS(C)(=O)=O)c3c2)c1=O` [Example 305], the “herbicidal effect rating, CYPIR” value in the series on Cyperus iria (setting [9]) amounted to 0.0. In series [1] (setting [9]), the “herbicidal effect rating, CYPSE” value is 0.0. For the same molecule, the “herbicidal effect rating, ECHORC” value in series [2] (setting [9]) turned out to be 0.0. For the same molecule, the “herbicidal effect rating, MOOVA” value in series [3] (setting [9]) turned out to be 0.0. Moreover, in series [4], the “herbicidal effect rating ORYSAT” value was found to be 0.0. Besides, in the series with Sagittaria pygmaea, L. (setting [9]), the “herbicidal effect rating, SAGPY” value is 0.0.

On to `COC(OC)c1nsc2ccc(-n3c(=O)cc(C(F)(F)F)n(C)c3=O)cc12` [Example 453, 1,2-Benzisothiazole-3-carboxaldehyde, 5-[3,6-dihydro-3-methyl-2,6-dioxo-4-(trifluoromethyl)-1(2H)-pyrimidinyl]-, 3-(dimethylacetal)], for which the CYPIR in the series on Cyperus iria (setting [10]), in the series on Cyperus iria (setting [11]), in the series with Cyperus iria (setting [12]) and with Cyperus iria (setting [13]) was 9.0 in each case. Moreover, the CYPSE in series [1] (setting [10]), in series [1] (setting [11]), in series [1] (setting [12]) and in series [1] (setting [13]) was 9.0 throughout. Also, the ECHORC in series [2] (setting [10]), in series [2] (setting [11]), in series [2] (setting [12]) and in series [2] (setting [13]) was 9.0 in each case. In addition, the MOOVA in series [3] (setting [10]), in series [3] (setting [11]), in series [3] (setting [12]) and in series [3] (setting [13]) was 9.0 in each case. Further, in series [4], the ORYSAT came out at 9.0. Moreover, the SAGPY in the series with Sagittaria pygmaea, L. (setting [10]) is given as 9.0; with Sagittaria pygmaea, L. (setting [11]) it was 9.0; in the series on Sagittaria pygmaea, L. (setting [12]), 9.0; in the series with Sagittaria pygmaea, L. (setting [13]) it was 9.0.

With `Cc1ccc(OCC(=O)c2ccccc2)c(-c2nsc3ccc(-n4c(=O)cc(C(F)(F)F)n(C)c4=O)cc23)c1` [Example 537, 2,4(1H,3H)-Pyrimidinedione, 1-methyl-3-{3-[6-(phenacyloxy)-m-tolyl]-1,2-benzisothiazol-5-yl}-6-(trifluoromethyl)-], the “herbicidal effect rating, CYPIR” value with Cyperus iria (setting [14]) turned out to be 0.0; with Cyperus iria (setting [15]), 0.0; with Cyperus iria (setting [16]) it was 1.0; with Cyperus iria (setting [17]), 4.0; with Cyperus iria (setting [18]), 9.0. For the same molecule, the “herbicidal effect rating, CYPSE” value in series [1] (setting [14]), in series [1] (setting [15]), in series [1] (setting [16]), in series [1] (setting [17]) and in series [1] (setting [18]) was 0.0 each time. The “herbicidal effect rating, ECHORC” value in series [2] (setting [14]) came out at 3.4; in series [2] (setting [15]), 4.4; in series [2] (setting [16]), 5.0; in series [2] (setting [17]) it was 9.0; in series [2] (setting [18]), 9.0. Also, the “herbicidal effect rating, MOOVA” value in series [3] (setting [14]), in series [3] (setting [15]), in series [3] (setting [16]), in series [3] (setting [17]) and in series [3] (setting [18]) was 9.0 throughout. The “herbicidal effect rating ORYSAT” value in series [4] turned out to be 0.0. The “herbicidal effect rating, SAGPY” value in the series with Sagittaria pygmaea, L. (setting [14]) is 0.0; with Sagittaria pygmaea, L. (setting [15]), 0.0; in the series with Sagittaria pygmaea, L. (setting [16]), 0.0; with Sagittaria pygmaea, L. (setting [17]) it was 0.0; with Sagittaria pygmaea, L. (setting [18]), 0.0.
